Experimental data: patent US20220401464A1, “TREATMENT OF CYR61- AND VEGF-MEDIATED CONDITIONS” (VANDA PHARMACEUTICALS INC., priority 2013, published 2022)
Counter-ions that a name gives are not always drawn.

Test system: CYR61 gene expression
Assay: CYR61 gene expression in ARPE-19/HPV16 cells treated for 24 hours, Affymetrix probe sets
Format: cell-based, human
Set-up: amplitude: scale not given here
Settings: 10 uM; for Fold (CYR61 Downregulation): versus vehicle
Protocol: In a study leading to embodiments of the invention, a human retinal pigment epithelial cell line (ARPE-19/HPV16) was separately treated with an anthracycline (doxorubicin or daunorubicin), a statin (simvastatin or lovastatin), or vehicle for 24 hours and gene expression for […] probe sets covering 12,490 genes was generated using an Affymetrix instrument. The effects of these compounds on the expression of CYR61 are shown below in Table 1.

SMILES: COc1cccc2c1C(=O)c1c(O)c3c(c(O)c1C2=O)C[C@@](O)(C(C)=O)C[C@@H]3O[C@H]1C[C@H](N)[C@H](O)[C@H](C)O1 [Daunorubicin HCl]
- Rank (probe 201289_at): 22278
- amplitude (probe 201289_at): −1.921
- Fold (CYR61 Downregulation) (probe 201289_at): −49.81
- Rank (probe 210764_s_at): 22239
- amplitude (probe 210764_s_at): −1.8272
- Fold (CYR61 Downregulation) (probe 210764_s_at): −22.15

SMILES: COc1cccc2c1C(=O)c1c(O)c3c(c(O)c1C2=O)C[C@@](O)(C(=O)CO)C[C@@H]3O[C@H]1C[C@H](N)[C@H](O)[C@H](C)O1 [Doxorubicin HCl]
- Rank (probe 201289_at): 22282
- amplitude (probe 201289_at): −1.967
- Fold (CYR61 Downregulation) (probe 201289_at): −118.5
- Rank (probe 210764_s_at): 22272
- amplitude (probe 210764_s_at): −1.925
- Fold (CYR61 Downregulation) (probe 210764_s_at): −52.26

SMILES: CC(=O)[C@]1(O)Cc2c(O)c3c(c(O)c2[C@@H](O[C@H]2C[C@H](N)[C@H](O)[C@H](C)O2)C1)C(=O)c1ccccc1C3=O [Idarubicin HCl]
- Rank (probe 201289_at): 22273
- amplitude (probe 201289_at): −1.899
- Fold (CYR61 Downregulation) (probe 201289_at): −38.72
- Rank (probe 210764_s_at): 22267
- amplitude (probe 210764_s_at): −1.875
- Fold (CYR61 Downregulation) (probe 210764_s_at): −31.13

SMILES: CC[C@H](C)C(=O)O[C@H]1C[C@@H](C)C=C2C=C[C@H](C)[C@H](CC[C@@H]3C[C@@H](O)CC(=O)O3)[C@H]21 [Lovastatin]
- Rank (probe 201289_at): 22271
- amplitude (probe 201289_at): −1.412
- Fold (CYR61 Downregulation) (probe 201289_at): −5.799
- Rank (probe 210764_s_at): 22264
- amplitude (probe 210764_s_at): −1.297
- Fold (CYR61 Downregulation) (probe 210764_s_at): −4.687

SMILES: CCC(C)(C)C(=O)O[C@H]1C[C@@H](C)C=C2C=C[C@H](C)[C@H](CC[C@@H]3C[C@@H](O)CC(=O)O3)[C@H]21 [Simvastatin]
- Rank (probe 201289_at): 22255
- amplitude (probe 201289_at): −1.378
- Fold (CYR61 Downregulation) (probe 201289_at): −5.428
- Rank (probe 210764_s_at): 22262
- amplitude (probe 210764_s_at): −1.3931
- Fold (CYR61 Downregulation) (probe 210764_s_at): −5.591
